{"source": "patent US4275067A", "about": "“Decarboxyclavulanic acid thio ethers, their preparation and use” (Beecham Group Limited, priority 1977, dated 1981)", "key": {"[1]": {"biological_target": "T1, β-lactamase (Ps. aeruginosa Dalgleish) (Pseudomonas aeruginosa, UniProt P16897)", "T1 construct": "Source of β-lactamase; endogenous in cells; host or cells: Ps. aeruginosa Dalgleish", "T1 sequence (P16897 18-288)": "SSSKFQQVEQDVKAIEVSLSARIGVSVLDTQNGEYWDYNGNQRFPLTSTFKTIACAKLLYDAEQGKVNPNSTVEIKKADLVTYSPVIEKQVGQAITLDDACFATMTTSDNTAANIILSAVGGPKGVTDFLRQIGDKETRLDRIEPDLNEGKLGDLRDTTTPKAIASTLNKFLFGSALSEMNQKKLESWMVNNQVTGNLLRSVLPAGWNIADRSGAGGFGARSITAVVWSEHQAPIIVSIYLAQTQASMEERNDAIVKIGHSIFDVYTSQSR", "assay": "β-lactamase inhibition", "assay_type": "biochemical", "conditions": "β-lactamase from Ps. aeruginosa Dalgleish; read-out: I50 (converted)", "description": "(§1) I50 values were determined using the process described in Belgian Pat. No. 827,926."}, "[2]": {"biological_target": "T2, β-lactamase (Staph. aureus Russell) (Staphylococcus aureus, UniProt P00807)", "T2 construct": "Source of β-lactamase; endogenous in cells; host or cells: Staph. aureus Russell", "T2 sequence (P00807 25-281)": "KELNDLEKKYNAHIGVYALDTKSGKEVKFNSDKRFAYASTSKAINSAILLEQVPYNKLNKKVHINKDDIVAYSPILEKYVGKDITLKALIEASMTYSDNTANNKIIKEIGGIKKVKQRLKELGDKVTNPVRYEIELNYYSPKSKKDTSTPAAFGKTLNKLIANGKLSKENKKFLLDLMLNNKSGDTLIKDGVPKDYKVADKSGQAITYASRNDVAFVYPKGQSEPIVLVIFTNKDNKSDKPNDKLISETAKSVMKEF", "assay": "β-lactamase inhibition", "assay_type": "biochemical", "conditions": "β-lactamase from Staph. aureus Russell; read-out: I50 (converted)", "description": "as §1"}, "[3]": {"biological_target": "β-lactamase (Pseudomonas aeruginosa A)", "assay": "β-lactamase inhibition", "assay_type": "biochemical", "conditions": "β-lactamase from Pseudomonas aeruginosa A", "description": "as §1"}, "[4]": {"biological_target": "T3, β-lactamase (E. coli JT 4) (Escherichia coli, UniProt P62593)", "T3 construct": "Source of β-lactamase; endogenous in cells; host or cells: E. coli JT 4", "T3 sequence (P62593 24-286 limits assumed)": "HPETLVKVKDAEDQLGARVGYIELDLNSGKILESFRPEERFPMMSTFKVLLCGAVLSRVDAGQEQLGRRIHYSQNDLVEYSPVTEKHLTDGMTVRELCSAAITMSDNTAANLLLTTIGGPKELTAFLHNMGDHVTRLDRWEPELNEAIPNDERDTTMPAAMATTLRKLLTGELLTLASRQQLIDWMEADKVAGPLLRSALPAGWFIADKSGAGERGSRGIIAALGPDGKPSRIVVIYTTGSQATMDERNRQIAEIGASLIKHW", "assay": "β-lactamase inhibition", "assay_type": "biochemical", "conditions": "β-lactamase from E. coli JT 4; read-out: I50 (converted)", "description": "as §1"}, "[5]": {"biological_target": "T4, β-lactamase (Enterobacter cloacae P 99) (Enterobacter cloacae, UniProt P05364)", "T4 construct": "Source of β-lactamase; endogenous in cells; host or cells: Enterobacter cloacae P 99", "T4 sequence (P05364 21-381)": "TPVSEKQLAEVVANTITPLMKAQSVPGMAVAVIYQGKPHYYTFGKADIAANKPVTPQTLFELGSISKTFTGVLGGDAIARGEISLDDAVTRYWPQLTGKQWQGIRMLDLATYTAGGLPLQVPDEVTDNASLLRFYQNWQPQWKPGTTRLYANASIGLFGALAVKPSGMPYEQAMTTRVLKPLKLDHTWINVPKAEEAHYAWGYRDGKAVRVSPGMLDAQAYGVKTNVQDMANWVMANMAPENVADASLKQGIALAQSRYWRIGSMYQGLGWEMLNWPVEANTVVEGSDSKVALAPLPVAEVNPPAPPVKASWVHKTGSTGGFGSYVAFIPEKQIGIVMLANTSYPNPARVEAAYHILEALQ", "assay": "β-lactamase inhibition", "assay_type": "biochemical", "conditions": "β-lactamase from Enterobacter cloacae P 99; read-out: I50 (converted)", "description": "as §1"}, "[6]": {"biological_target": "β-lactamase (Proteus mirabilis C 889)", "assay": "β-lactamase inhibition", "assay_type": "biochemical", "conditions": "β-lactamase from Proteus mirabilis C 889", "description": "as §1"}, "[7]": {"tested_on": "Staph. aureus Russell and Klebsiella aerogenes E70", "assay": "Antibacterial synergy when combined with ampicillin (overall statement)", "assay_type": "cell-based"}, "Candida albicans": {"tested_on": "Candida albicans", "assay": "Anti-fungal activity, microtitre method", "assay_type": "cell-based", "conditions": "glucosepeptone broth", "text": "(§2) The anti-fungal activity of the compound of Example 7 was investigated using a microtitre method, with glucosepeptone broth at 1/50 and 1/500 final dilutions of inoculum. The organisms used were Candida albicans and Saccharomyces cerevisiae. The minimum inhibitory concentrations (MIC) are shown below."}, "Saccharomyces cerevisiae": {"tested_on": "Saccharomyces cerevisiae", "assay": "Anti-fungal activity, microtitre method", "assay_type": "cell-based", "conditions": "glucosepeptone broth", "text": "as §2"}, "Staph. aureus Russell": {"tested_on": "Staph. aureus Russell", "assay": "Antibacterial synergy with ampicillin", "assay_type": "cell-based", "conditions": "ampicillin without inhibitor"}}, "note": "Like-named read-outs stand apart in the source and are kept apart here.", "data": [{"smiles": "O=C1C[C@H]2O/C(=C\\CSc3ccccc3)CN12", "note": "[Example 1, (Z, 5R)-3-(2-Phenylthioethylidene)-4-oxa-1-azabicyclo [3.2.0]heptan-7-one]", "values": [{"measurement": "IC50", "setting": "[1]", "result": 2430, "unit": "nM"}, {"measurement": "IC50", "setting": "[2]", "result": 1010, "unit": "nM"}, {"measurement": "I50", "setting": "[3]", "result": 2.2, "unit": "µg/mL"}, {"measurement": "IC50", "setting": "[4]", "result": 1460, "unit": "nM"}, {"measurement": "IC50", "setting": "[5]", "result": 5340, "unit": "nM"}, {"measurement": "I50", "setting": "[6]", "result": 4.4, "unit": "µg/mL"}, {"measurement": "antibacterial synergy", "setting": "[7]", "result": "active as antibacterial synergists"}]}, {"smiles": "COC(=O)CCSC/C=C1/CN2C(=O)C[C@H]2O1", "note": "[Example 7, (Z)-(5R)-3-[2-(2-Methoxycarbonylethylthio)ethylidene]-4-oxa-1-azabicyclo[3.2.0]hetpan-7-one]", "values": [{"measurement": "MIC", "setting": "Candida albicans; Candida albicans, final dilution of inoculum 1/50, read-out: minimum inhibitory concentration (MIC)", "result": 12.5, "unit": "µg/mL"}, {"measurement": "minimum inhibitory concentration (MIC)", "setting": "Candida albicans; final dilution of inoculum 1/500", "result": 12.5, "unit": "µg/mL"}, {"measurement": "MIC", "setting": "Saccharomyces cerevisiae; final dilution of inoculum 1/50, read-out: minimum inhibitory concentration (MIC)", "result": "> 100", "unit": "µg/mL"}, {"measurement": "MIC", "setting": "Saccharomyces cerevisiae; final dilution of inoculum 1/500, read-out: minimum inhibitory concentration (MIC)", "result": 100, "unit": "µg/mL"}]}, {"smiles": "CC1(C)S[C@@H]2[C@H](NC(=O)[C@H](N)c3ccccc3)C(=O)N2[C@H]1C(=O)O", "note": "[ampicillin]", "values": [{"measurement": "MIC for ampicillin", "setting": "Staph. aureus Russell", "result": 250, "unit": "µg/mL"}]}]}
